{"source": "patent US3950517A", "about": "“Insulin derivatives” (National Research Development Corporation, priority 1970, dated 1976)", "key": {"[1]": {"system": "specific insulin antibody", "experiment": "Radioimmunoassay of immunoreactivity (reactivity towards specific insulin antibody)", "assay_type": "binding", "conditions": "percentage basis relative to insulin; for Immunoreactivity: Table 2; for Radioimmunoassay Immunoreactivity: Table 1", "source_text": "(§1) In most cases the new derivatives have an initial bloor sugar lowering effect which is virtually indistinguishable from insulin itself. In contrast the derivatives have less than about 50% of the immunoreactivity of the parent insulin as determined by radioimmunoassay. In many cases the reduction in immunoreactivity (reactivity towards specific insulin antibody) is as low as 30% or even 10% of that of the parent hormone. The figures are expressed on a percentage basis relative to insulin."}, "[2]": {"system": "blood sugar", "experiment": "Blood sugar lowering activity by intravenous injection into laboratory animals", "assay_type": "in vivo", "conditions": "Table 2; percentage basis relative to insulin", "source_text": "as §1"}, "[3]": {"system": "Mouse", "experiment": "Mouse convulsion assay (British Pharmacopoeia, 1968) against neutral insulin standard", "assay_type": "in vivo", "conditions": "Table 1; percentage basis relative to insulin", "source_text": "as §1\nThe insulin derivatives were separated from trace amounts of urea and salt by elution from a Sephadex G.10 column (2.5 × 60 cm.) equilibrated with 5% aqueous acid and the protein, after lyophilisation, was dried over phosphorous pentoxide at room temperature for 2 days. The derivatives were assayed against a neutral insulin solution (Nuso insulin batch A 354) as standard by the Mouse Convulsion method (British Pharmacopoeia, 1968). All injections were of solutions in acetate buffer, pH 8.0."}}}
{"substance": "(Carbamyl-Gly)A1 -(Carbamyl-Phe)B1 -(Carbamyl-Lys)B29 -insulin", "values": [{"measurement": "Immunoreactivity", "setting": "[1]", "value": 9, "unit": "%"}, {"measurement": "Blood sugar lowering", "setting": "[2]", "value": 100, "unit": "%"}]}
{"substance": "(Carbamyl-Gly)A1 -(Carbamyl-Phe)B1 -insulin", "values": [{"measurement": "Immunoreactivity", "setting": "[1]", "value": 10, "unit": "%"}, {"measurement": "Blood sugar lowering", "setting": "[2]", "value": 100, "unit": "%"}]}
{"substance": "(Carbamyl-Phe)B1 -insulin", "values": [{"measurement": "Immunoreactivity", "setting": "[1]", "value": 23, "unit": "%"}, {"measurement": "Blood sugar lowering", "setting": "[2]", "value": 100, "unit": "%"}]}
{"substance": "A1, B1, B29 -triacetyl-insulin", "values": [{"measurement": "Radioimmunoassay Immunoreactivity", "setting": "[1]", "value": 10, "unit": "%"}, {"measurement": "Mouse convulsion assay Mean potency", "setting": "[3]", "value": 96, "unit": "%"}]}
{"substance": "Crystalline bovine insulin: Parent bovine insulin, reference set to 100 [reference compound]", "values": [{"measurement": "Radioimmunoassay Immunoreactivity", "setting": "[1]", "value": 100, "unit": "%"}, {"measurement": "Immunoreactivity", "setting": "[1]", "value": 100, "unit": "%"}, {"measurement": "Blood sugar lowering", "setting": "[2]", "value": 100, "unit": "%"}, {"measurement": "Mouse convulsion assay Mean potency", "setting": "[3]", "value": 100, "unit": "%"}]}
{"substance": "Gly^A1 -monosubstituted insulin (a) carbamyl: Insulin carbamylated at A1 glycine", "values": [{"measurement": "Blood sugar lowering", "setting": "[2]", "value": 100, "unit": "%"}]}
{"substance": "Gly^A1 -monosubstituted insulin (b) methylthiocarbamyl: Insulin methylthiocarbamylated at A1 glycine", "values": [{"measurement": "Immunoreactivity", "setting": "[1]", "value": 92, "unit": "%"}, {"measurement": "Blood sugar lowering", "setting": "[2]", "value": 100, "unit": "%"}]}
{"substance": "Gly^A1 -monosubstituted insulins (a) Acetyl (bovine): Bovine insulin acetylated at the A1 glycine amino group", "values": [{"measurement": "Radioimmunoassay Immunoreactivity", "setting": "[1]", "value": 71, "unit": "%"}, {"measurement": "Mouse convulsion assay Mean potency", "setting": "[3]", "value": 105, "unit": "%"}]}
{"substance": "Gly^A1 -monosubstituted insulins (b) Acetoacetyl (bovine): Bovine insulin acetoacetylated at the A1 glycine amino group", "values": [{"measurement": "Radioimmunoassay Immunoreactivity", "setting": "[1]", "value": 87, "unit": "%"}, {"measurement": "Mouse convulsion assay Mean potency", "setting": "[3]", "value": 88, "unit": "%"}]}
{"substance": "Gly^A1 -monosubstituted insulins (c) Thiazolidine (bovine): Bovine insulin acylated at A1 glycine with 2,2-dimethyl-3-formyl-L-thiazolidine-4-carboxylic acid", "values": [{"measurement": "Radioimmunoassay Immunoreactivity", "setting": "[1]", "value": 81, "unit": "%"}, {"measurement": "Mouse convulsion assay Mean potency", "setting": "[3]", "value": 57, "unit": "%"}]}
{"substance": "Gly^A1 Lys^B29 -diacetyl insulin", "values": [{"measurement": "Radioimmunoassay Immunoreactivity", "setting": "[1]", "value": 67, "unit": "%"}, {"measurement": "Mouse convulsion assay Mean potency", "setting": "[3]", "value": 93, "unit": "%"}]}
{"substance": "Lys^B29 -monosubstituted insulins (b) Thiazolidine (bovine): Bovine insulin acylated at B29 lysine with 2,2-dimethyl-3-formyl-L-thiazolidine-4-carboxylic acid", "values": [{"measurement": "Radioimmunoassay Immunoreactivity", "setting": "[1]", "value": 84, "unit": "%"}, {"measurement": "Mouse convulsion assay Mean potency", "setting": "[3]", "value": 101, "unit": "%"}]}
{"substance": "Lys^B29 acetyl insulin", "values": [{"measurement": "Radioimmunoassay Immunoreactivity", "setting": "[1]", "value": 83, "unit": "%"}, {"measurement": "Mouse convulsion assay Mean potency", "setting": "[3]", "value": 114, "unit": "%"}]}
{"substance": "Phe^B1 -Gly^A1 -disubstituted insulins (b) methylthiocarbamyl: Insulin methylthiocarbamylated at A1 and B1", "values": [{"measurement": "Immunoreactivity", "setting": "[1]", "value": 20, "unit": "%"}, {"measurement": "Blood sugar lowering", "setting": "[2]", "value": 100, "unit": "%"}]}
{"substance": "Phe^B1 -monosubstituted insulins (b) Acetoacetyl (bovine): Bovine insulin acetoacetylated (diketen) at the B1 phenylalanine amino group", "values": [{"measurement": "Radioimmunoassay Immunoreactivity", "setting": "[1]", "value": 8.6, "unit": "%"}, {"measurement": "Mouse convulsion assay Mean potency", "setting": "[3]", "value": 109, "unit": "%"}]}
{"substance": "Phe^B1 -monosubstituted insulins (c) Thiazolidine (bovine): Bovine insulin acylated at B1 phenylalanine with 2,2-dimethyl-3-formyl-L-thiazolidine-4-carboxylic acid", "values": [{"measurement": "Radioimmunoassay Immunoreactivity", "setting": "[1]", "value": 27, "unit": "%"}, {"measurement": "Mouse convulsion assay Mean potency", "setting": "[3]", "value": 103, "unit": "%"}]}
{"substance": "Phe^B1 Gly^A1 -diacetyl insulin", "values": [{"measurement": "Radioimmunoassay Immunoreactivity", "setting": "[1]", "value": 25, "unit": "%"}, {"measurement": "Mouse convulsion assay Mean potency", "setting": "[3]", "value": 90, "unit": "%"}]}
{"substance": "Phe^B1 acetyl insulin", "values": [{"measurement": "Radioimmunoassay Immunoreactivity", "setting": "[1]", "value": 30, "unit": "%"}, {"measurement": "Mouse convulsion assay Mean potency", "setting": "[3]", "value": 100, "unit": "%"}]}
{"substance": "Phe^B1, Gly^A1 -disubstituted insulins (b) Acetoacetyl (bovine): Bovine insulin acetoacetylated at B1 and A1", "values": [{"measurement": "Radioimmunoassay Immunoreactivity", "setting": "[1]", "value": 14, "unit": "%"}, {"measurement": "Mouse convulsion assay Mean potency", "setting": "[3]", "value": 76, "unit": "%"}]}
{"substance": "Phe^B1, Gly^A1, Lys^B29 -trisubstituted insulins (b) Acetoacetyl (bovine): Bovine insulin acetoacetylated at A1, B1 and B29", "values": [{"measurement": "Radioimmunoassay Immunoreactivity", "setting": "[1]", "value": 17, "unit": "%"}, {"measurement": "Mouse convulsion assay Mean potency", "setting": "[3]", "value": 77, "unit": "%"}]}
